Experimental data reported in patent publication US20240100120A1 (priority 2019, published 2024).
Where a SMILES comes first, the peptide text is derived from it. Bridges are numbered along the chain shown (N, C = ends). [ ]: non-standard residue; d: D form. Orn = NCCC[C@H](N)C(=O)O; Mpa = O=C(O)CCS

Tests used:
[1] = tested on: fentanyl OIRD (integrated phrenic nerve activity, iPNA); conditions: rat, in vivo, iv
[2] = tested on: integrated phrenic nerve activity (iPNA); opioid OIRD; conditions: rat, in vivo
[3] = tested on: side effects (e.g., respiratory depression) of opioid receptor agonists; conditions: oxytocin 0.32 mg/kg subcutaneously; heroin 0.1-1.0 mg/kg; rhesus monkeys
hypopnea and apnea = conditions: human sleep apnea patients; cited from earlier work
[4] = tested on: opioid self-administration; conditions: Kovacs G L, et al. Life Sci. 1985; cited from earlier work

CCOc1ccc(C[C@H]2NC(=O)CCSSC[C@@H](C(=O)N3CCC[C@H]3C(=O)N[C@@H](CCCN)C(=O)NCC(N)=O)NC(=O)[C@H](CC(N)=O)NC(=O)[C@H]([C@@H](C)O)NC(=O)[C@H]([C@@H](C)CC)NC2=O)cc1 [atosiban] ([Mpa][dY](Et)ITNCP[Orn]G-NH2; disulfide 1-6)
effect of OXTN receptor antagonism on OXTN reversal of FENT OIRD [1]: prevents OXTN (5 μg/kg) reversal of FENT OIRD

CC[C@H](C)[C@@H]1NC(=O)[C@H](Cc2ccc(O)cc2)NC(=O)[C@@H](N)CSSC[C@@H](C(=O)N2CCC[C@H]2C(=O)N[C@@H](CC(C)C)C(=O)NCC(N)=O)NC(=O)[C@H](CC(N)=O)NC(=O)[C@H](CCC(N)=O)NC1=O [oxytocin]
reduction of OIRD by OXT delivered into the PVN [2]: does not reduce OIRD | reversal of side effects (e.g., respiratory depression) of opioid receptor agonists [3]: reversed | frequency of hypopnea, apnea and hypopnea duration and related arousal (hypopnea and apnea): improved | opioid self-administration [4]: reduces opioid self-administration

(Phenylacl-D-Tyr(Et)2,Lys6,Arg8,des-Gly9)-vasopressin trifluoroacetate [V1aRX]
effect of V1aR antagonism on OXTN reversal of OIRD [1]: significantly enhances reversal | effect of V1aR antagonism on high dose OXTN reversal of OIRD [1]: efficacy is restored
